Results on 29 compounds are retold here after US20240140944A1, “NOVEL NAPHTHYRIDINONE DERIVATIVE HAVING INHIBITORY ACTIVITY AGAINST ECTONUCLEOTIDE PYROPHOSPHATASE-PHOSPHODIESTERASE AND USE THEREOF” (TXINNO BIOSCIENCE INC., priority 2020, published 2024).

SMILES strings stand for the structures. Counter-ions that a name gives are not always drawn.

In the assay the target is T1, human recombinant ENPP1 enzymes (Homo sapiens, UniProt P22413).
T1 construct: purchased R & D systems
T1 sequence (P22413 1-925): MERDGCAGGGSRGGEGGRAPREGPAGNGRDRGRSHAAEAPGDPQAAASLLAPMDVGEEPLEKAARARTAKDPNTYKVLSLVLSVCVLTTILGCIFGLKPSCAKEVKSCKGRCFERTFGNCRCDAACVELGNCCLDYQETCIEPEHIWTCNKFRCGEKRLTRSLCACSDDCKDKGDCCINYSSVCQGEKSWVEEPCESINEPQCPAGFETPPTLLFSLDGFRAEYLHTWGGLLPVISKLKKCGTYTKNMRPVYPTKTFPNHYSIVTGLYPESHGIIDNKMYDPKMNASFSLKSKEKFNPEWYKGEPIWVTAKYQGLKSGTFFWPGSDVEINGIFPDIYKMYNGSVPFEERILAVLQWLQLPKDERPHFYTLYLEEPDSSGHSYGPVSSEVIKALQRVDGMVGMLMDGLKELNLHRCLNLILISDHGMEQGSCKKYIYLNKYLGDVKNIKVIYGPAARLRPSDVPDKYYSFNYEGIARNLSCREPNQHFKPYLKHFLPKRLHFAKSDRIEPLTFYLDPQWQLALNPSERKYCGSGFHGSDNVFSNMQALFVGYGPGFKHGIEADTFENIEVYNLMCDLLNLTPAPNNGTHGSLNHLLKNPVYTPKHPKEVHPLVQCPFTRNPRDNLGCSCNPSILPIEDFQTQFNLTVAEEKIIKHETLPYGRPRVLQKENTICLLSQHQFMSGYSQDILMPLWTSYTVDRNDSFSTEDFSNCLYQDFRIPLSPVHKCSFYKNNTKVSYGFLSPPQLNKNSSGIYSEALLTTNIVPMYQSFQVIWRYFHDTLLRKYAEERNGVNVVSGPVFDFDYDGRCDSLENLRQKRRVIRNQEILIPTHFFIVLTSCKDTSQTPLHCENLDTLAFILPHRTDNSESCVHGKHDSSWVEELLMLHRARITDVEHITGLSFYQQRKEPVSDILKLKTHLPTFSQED
Nature of the assay: ENPP1 Enzyme Assay with cGAMP Substrate (AMP-Glo). To be noted: human recombinant ENPP1 3 ng/reaction, cGAMP 5 μM, 37° C. 90 minutes, average of two or more tests; read-out: Enzymatic activity IC50. In kind it is biochemical. How it is done: ENPP1 hydrolyzes nucleotides or nucleotide derivatives to produce nucleoside-5′-monophosphate and pyrophosphate. In addition, ENPP1 hydrolyzes 2′,3′-cGAMP to produce 5′-adenosine monophosphate (AMP) and 5′-guanosine monophosphate (GMP). AMP produced from the reaction is measured using the AMP-Glo® kit (Promega). The AMP-Glo® kit contains two reagents. The first reagent terminates the AMP-producing enzymatic reaction, removes ATP and converts the produced AMP into ADP. The second reagent converts ADP to ATP which is used to generate luminescence in the luciferase reaction. The amount of luminescence measured is proportional to the amount of AMP produced by ENPP1.
The final reaction mixture contains 50 mM Tris (pH 8.5) buffer, 250 mM NaCl, 0.5 mM CaCl2), 1 μM ZnCl2, 5% glycerol and 1% DMSO. Serially diluted ENPP1 inhibitors (typically in the range of 10 μM to 0.5 nM) were pre-stored with human recombinant ENPP1 enzymes (R & D systems) at 3 ng/reaction and room temperature (RT) for 5 to 10 minutes. The reaction was initiated by addition of cGAMP (at a final concentration of 5 μM) and reacted at 37° C. for 90 minutes. At the end of the reaction, 10 μl of the AMP-Glo first reagent was added to stop the reaction and the result was stored at room temperature for 1 hour. After storage, 20 μl of an AMP detection solution (a mixture of AMP-Glo II reagent and Kinase-Glo at a ratio of 1:100) was added and stored at room temperature for 1 hour. Luminescence signals were measured using a Victor® plate reader (Perkin Elmer). The maximal activity control (containing enzymes and substrates in the presence of 1% DMSO; MAX) and the minimal activity control (containing substrates and 1% DMSO; MIN) were evaluated simultaneously. In each experiment, serially diluted reference ENPP1 inhibitors were tested as well. IC50, indicating % residual activity versus compound concentration was determined by fitting inhibition curves using the 3-parameter analysis of GraphPad Prism® software. Serially diluted samples of one compound were tested two or more times and an average IC50 of each compound was calculated.
With `CC(C)(C)OC(=O)Nc1cccc(-c2ccnc3[nH]c(=O)ccc23)c1` [Example 1, tert-butyl(3-(7-oxo-7,8-dihydro-1,8-naphthyridin-4-yl)phenyl)carbamate], the IC50 – broadly, the concentration that gives 50% inhibition – fell in the range of 1000 to 10000 nM.
Take `CC(C)(C)OC(=O)NCc1cccc(-c2ccnc3[nH]c(=O)ccc23)c1` [Example 2, tert-butyl(3-(7-oxo-7,8-dihydro-1,8-naphthyridin-4-yl)benzyl)carbamate]: the IC50 lay in the range of 1000 to 10000 nM.
For `CC(C)(C)OC(=O)NCc1ccc(-c2ccnc3[nH]c(=O)ccc23)cc1` [Example 3, tert-butyl(4-(7-oxo-7,8-dihydro-1,8-naphthyridin-4-yl)benzyl)carbamate] the value was 1000 to 10000 nM.
The figure for `NCc1cccc(-c2ccnc3[nH]c(=O)ccc23)c1` [Example 7, 5-(3-(aminomethyl)phenyl)-1,8-naphthyridin-2(1H)-one hydrochloride] is < 1000 nM.
The figure for `Cl.Nc1ccc(F)c(-c2ccnc3[nH]c(=O)ccc23)c1` [Example 8, 5-(5-(amino-2-fluorophenyl)-1,8-naphthyridin-2(1H)-one hydrochloride] is > 10000 nM; for `CC(C)(N)c1ccc(-c2ccnc3[nH]c(=O)ccc23)cc1` [Example 16, 5-(4-(2-aminopropan-2-yl)phenyl)-1,8-naphthyridin-2(1H)-one hydrochloride] it is 1000 to 10000 nM; for `CN[C@H](C)c1ccc(-c2ccnc3[nH]c(=O)ccc23)cc1` [Example 17, (R)-5-(4-(1-(methylaminoethyl)phenyl)-1,8-naphthyridin-2(1H)-one hydrochloride] it is 1000 to 10000 nM.
With `CN[C@@H](C)c1ccc(-c2ccnc3[nH]c(=O)ccc23)cc1` [Example 18, (S)-5-(4-(1-(methylaminoethyl)phenyl)-1,8-naphthyridin-2(1H)-one hydrochloride], the IC50 was < 1000 nM.
For `O=c1ccc2c(-c3ccc4c(c3)CNC4)ccnc2[nH]1` [Example 26, 5-(isoindolin-5-yl)-1,8-naphthyridin-2(1H)-one hydrochloride] the value was < 1000 nM; for `O=c1ccc2c(-c3ccc4c(c3)CNCC4)ccnc2[nH]1` [Example 27, 5-(1,2,3,4-tetrahydroisoquinolin-7-yl)-1,8-naphthyridin-2(1H)-one hydrochloride], 1000 to 10000 nM.
As for `Cn1c(=O)ccc2c(-c3ccc(CN)cc3)ccnc21` [Example 29, 5-(4-(aminomethyl)phenyl)-1-methyl-1,8-naphthyridin-2(1H)-one hydrochloride], the IC50 was in the range of 1000 to 10000 nM.
Consider `CC(C)(C)OC(=O)NS(=O)(=O)NCc1ccc(-c2ccnc3[nH]c(=O)ccc23)cc1` [Example 32, tert-butyl(N-(4-(7-oxo-7,8-dihydro-1,8-naphthyridin-4-yl)benzyl)sulfamoyl)carbamate], for which the IC50 is < 1000 nM.
The figure for `NS(=O)(=O)Nc1ccc(-c2ccnc3[nH]c(=O)ccc23)cc1` [Example 39, N-(4-(7-oxo-7,8-dihydro-1,8-naphthyridin-4-yl)phenyl)sulfamide] is 1000 to 10000 nM.
The figure for `NS(=O)(=O)NCc1ccc(-c2ccnc3[nH]c(=O)ccc23)cc1` [Example 40, N-(4-(7-oxo-7,8-dihydro-1,8-naphthyridin-4-yl)benzyl)sulfamide] is < 1000 nM; for `NS(=O)(=O)NCc1cc(F)c(-c2ccnc3[nH]c(=O)ccc23)c(F)c1` [Example 44, N-(3,5-difluoro-4-(7-oxo-7,8-dihydro-1,8-naphthyridin-4-yl)benzyl)sulfamide hydrochloride] it is < 1000 nM; for `C[C@@H](NS(N)(=O)=O)c1ccc(-c2ccnc3[nH]c(=O)ccc23)cc1` [Example 46, (R)-(N-(1-(4-(7-oxo-7,8-dihydro-1,8-naphthyridin-4-yl)phenyl)ethyl)sulfamide hydrochloride] it is < 1000 nM.
For `C[C@H](NS(N)(=O)=O)c1ccc(-c2ccnc3[nH]c(=O)ccc23)cc1` [Example 47, (S)-(N-(1-(4-(7-oxo-7,8-dihydro-1,8-naphthyridin-4-yl)phenyl)ethyl)sulfamide hydrochloride] the value was < 1000 nM; for `C[C@@H](NS(N)(=O)=O)c1ccc(-c2ccnc3[nH]c(=O)ccc23)cc1F` [Example 48, (R)-(N-(1-(2-fluoro-4-(7-oxo-7,8-dihydro-1,8-naphthyridin-4-yl)phenyl)ethyl)sulfamide hydrochloride], < 1000 nM; for `CN(Cc1ccc(-c2ccnc3[nH]c(=O)ccc23)cc1)S(N)(=O)=O` [Example 50, N-methyl-N-(4-(7-oxo-7,8-dihydro-1,8-naphthyridin-4-yl)benzyl)sulfamide hydrochloride], < 1000 nM.
As for `CCN(Cc1ccc(-c2ccnc3[nH]c(=O)ccc23)cc1)S(N)(=O)=O` [Example 51, N-ethyl-N-(4-(7-oxo-7,8-dihydro-1,8-naphthyridin-4-yl)benzyl)sulfamide hydrochloride], the IC50 was < 1000 nM.
The figure for `CC(C)N(Cc1ccc(-c2ccnc3[nH]c(=O)ccc23)c(F)c1)S(N)(=O)=O` [Example 57, N-(3-fluoro-4-(7-oxo-7,8-dihydro-1,8-naphthyridin-4-yl)benzyl)-N-isopropyl)sulfamide hydrochloride] is > 10000 nM; for `C[C@H](c1ccc(-c2ccnc3[nH]c(=O)ccc23)cc1)N(C)S(N)(=O)=O` [Example 59, (R)-(N-methyl-N-(1-(4-(7-oxo-7,8-dihydro-1,8-naphthyridin-4-yl)phenyl)ethyl)sulfamide hydrochloride] it is < 1000 nM.
For `C[C@H](c1ccc(-c2ccnc3[nH]c(=O)ccc23)cc1)N(C1CC1)S(N)(=O)=O` [Example 60, (R)-(N-cyclopropyl-N-(1-(4-(7-oxo-7,8-dihydro-1,8-naphthyridin-4-yl)phenyl)ethyl)sulfamide hydrochloride] the value was 1000 to 10000 nM; for `NS(=O)(=O)N1CCc2cc(F)c(-c3ccnc4[nH]c(=O)ccc34)cc2C1` [Example 66, 6-fluoro-7-(7-oxo-7,8-dihydro-1,8-naphthyridin-4-yl)-3,4-dihydroisoquinoline-2(1H)-sulfamide hydrochloride], < 1000 nM.
Regarding `Cn1c(=O)ccc2c(-c3ccc(CNS(N)(=O)=O)cc3)ccnc21` [Example 67, N-(4-(8-methyl-7-oxo-7,8-dihydro-1,8-naphthyridin-4-yl)benzyl)sulfamide], the IC50 was < 1000 nM.
The figure for `O=c1ccc2c(-c3ccc(CNS(=O)(=O)c4cccs4)cc3)ccnc2[nH]1` [Example 70, N-(4-(7-oxo-7,8-dihydro-1,8-naphthyridin-4-yl)benzyl)thiophene-2-sulfonamide] is < 1000 nM; for `O=c1ccc2c(-c3ccc(CNS(=O)(=O)C4CC4)cc3)ccnc2[nH]1` [Example 71, N-(4-(7-oxo-7,8-dihydro-1,8-naphthyridin-4-yl)benzyl)cyclopropanesulfonamide] it is 1000 to 10000 nM; for `CCOP(=O)(O)Cc1ccc(-c2ccnc3[nH]c(=O)ccc23)cc1` [Example 74, ethylhydrogen(4-(7-oxo-7,8-dihydro-1,8-naphthyridin-4-yl)benzyl)phosphonate] it is 1000 to 10000 nM.
Turning to `O=c1ccc2c(-c3ccc(CP(=O)(O)O)cc3)ccnc2[nH]1` [Example 75, (4-(7-oxo-7,8-dihydro-1,8-naphthyridin-4-yl)benzyl)phosphonic acid], the IC50 was < 1000 nM.
